Experimental data published in ChEMBL document CHEMBL1201862, “PubChem BioAssay data set” (2004).
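All cell lines were grown in 96-well plates and treated with compound for 48 hours. GI50 marks 50% less growth.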 Active and inactive are the calls of the source. Rule as the data show it: active = GI50 up to about 1.1 µM and inactive = higher.

Assays:
Test in all cases: DTP human tumour cell line panel, 48 h
[1] = tested on: RXF 393
[2] = tested on: TK-10
[3] = tested on: UO-31
[4] = tested on: HCC 2998
[5] = tested on: NCI-H23
[6] = tested on: OVCAR-4
[7] = tested on: NCI-H460
[8] = tested on: SK-MEL-5
[9] = tested on: UACC-257
[10] = tested on: A549
[11] = tested on: CAKI-1
[12] = tested on: SN12C
[13] = tested on: SK-MEL-28
[14] = tested on: Malme-3M
[15] = tested on: SW-620
[16] = tested on: KM12
[17] = tested on: MCF7
[18] = tested on: OVCAR-3
[19] = tested on: OVCAR-8
[20] = tested on: SNB-75

Measured: GI50

c1ccc2c(c1)c1c(n2CCOCCCN2CCCCC2)CCCC1
inactive: [1] 11.4 µM | [2] 16.4 µM | [3] 12.6 µM | [4] 18 µM | [5] 17.6 µM | [6] 12.5 µM | [7] 13.9 µM | [8] 20.6 µM | [9] 16.8 µM | [10] 18.4 µM | [11] 18 µM | [12] 13.6 µM | [13] 20.1 µM | [14] 18 µM | [15] 19.5 µM | [16] 15 µM | [17] 16.1 µM | [18] 13.2 µM | [19] 17.6 µM | [20] 16 µM

C[N+]1(C)CN(c2ccccc2)C2(CCN(CCCC(=O)c3cccs3)CC2)C1=O
inactive: [1] > 100 µM | [2] > 100 µM | [3] 62.4 µM | [4] 65.9 µM | [5] 82.6 µM | [6] 96.8 µM | [7] 57 µM | [8] 28.1 µM | [9] 42.4 µM | [10] > 100 µM | [11] > 100 µM | [12] > 100 µM | [13] > 100 µM | [14] > 100 µM | [15] > 100 µM | [16] > 100 µM | [17] 53.8 µM | [18] 94.2 µM | [19] > 100 µM | [20] 27.7 µM
